In US20240247015A1, “PHOSPHORUS DERIVATIVES AS NOVEL SOS1 INHIBITORS” (BAYER AKTIENGESELLSCHAFT, priority 2021, published 2024):
pIC50: −log10 of the molar value.

Molecular target: interaction of human SOS1 (SOS1) with human K-RasG12C (Homo sapiens (Human), UniProt Q07889)
Experiment: Biochemical assay: hK-RasG12C interaction assay with hSOS1 (HTRF)
Type: binding
Settings: GST-hK-RasG12C with His-hSOS1, 60 min incubation at 20° C., mean, read-out: K-RasG12C - SOS interaction assay IC50 (mean)
Procedure: Biochemical Assay: hK-RasG12C Interaction Assay with hSOS1 This assay quantifies the equilibrium interaction of human SOS1 (SOS1) with human K-Ras^G12^C (K-RasG12C). Detection of the interaction is achieved by measuring homogenous time-resolved fluorescence resonance energy transfer (HTRF) from antiGST-Europium (FRET donor) bound to GST-K-RasG12C to anti-6His-XL665 bound to His-tagged hSOS1 (FRET-acceptor). The assay buffer containes 5 mM HEPES pH 7.4 (Applichem), 150 mM NaCl (Sigma), […] (Promega), 1 mM DTT (Thermofisher), 0.05% BSA Fraction V, pH 7.0, (ICN Biomedicals), 0.0025% (v/v) Igepal (Sigma) and 100 mM KF (FLUKA). The expression and purification of N-terminally GST-tagged human K-RasG12C (termed GST-hK-RasG12C) and N-terminally His-tagged human SOS1 (termed His10-hSOS1) is described in WO 2019/201848, page 220 line 12-34 and page 222, line 13-25 (expression) and page 222, line 26 to page 223, line 17 (purification). Concentrations of protein batches used are optimized to be within the linear range of the HTRF signal. A Ras working solution is prepared in assay buffer containing typically 10 nM GST-hK-RasG12C and 2 nM antiGST-Eu(K) (Cisbio, France). A SOS1 working solution is prepared in assay buffer containing typically 20 nM His-hSOS1 and 10 nM anti-6His-XL665 (Cisbio, France). An inhibitor control solution is prepared in assay buffer containing nM anti-6His-XL665 without SOS1. Fifty nl of a 100-fold concentrated solution of the test compound in DMSO are transferred into a black microtiter test plate (384 or 1536, Greiner Bio-One, Germany). For this, either a Hummingbird liquid handler (Digilab, MA, USA) or an Echo acoustic system (Labcyte, CA, USA) is used. All steps of the assay are performed at 20° C. A volume of 2.5 μl of the Ras working solution is added to all wells of the test plate using a Multidrop dispenser (Thermo Labsystems). After 2 min preincubation, 2.5 μl of the SOS1 working solution are added to all wells except for those wells at the side of the test plate that are subsequently filled with 2.5 μl of the inhibitor control solution. After 60 min incubation the fluorescence is measured with a Pherastar (BMG, Germany) using the HTRF module (excitation 337 nm, emission 1: 620 nm, emission 2: 665 nm). The ratiometric data (emission 2 divided by emission 1) are normalized using the controls (DMSO=0% inhibition, inhibition control wells with inhibitor control solution=100% inhibition). Compounds are tested in duplicates at up to 11 concentrations (for 20 μM, 5,7 μM, 1,6 μM, 0.47 μM, 0.13 μM, 38 nM, 11 nM, 3.1 nM, 0.89 nM, 0.25 nM and 0.073 nM). IC50 values are calculated by 4-Parameter fitting using a commercial software package (Genedata Screener, Switzerland).

Chain of interaction of human SOS1 (SOS1) with human K-RasG12C (Q07889 564-1049 limits assumed): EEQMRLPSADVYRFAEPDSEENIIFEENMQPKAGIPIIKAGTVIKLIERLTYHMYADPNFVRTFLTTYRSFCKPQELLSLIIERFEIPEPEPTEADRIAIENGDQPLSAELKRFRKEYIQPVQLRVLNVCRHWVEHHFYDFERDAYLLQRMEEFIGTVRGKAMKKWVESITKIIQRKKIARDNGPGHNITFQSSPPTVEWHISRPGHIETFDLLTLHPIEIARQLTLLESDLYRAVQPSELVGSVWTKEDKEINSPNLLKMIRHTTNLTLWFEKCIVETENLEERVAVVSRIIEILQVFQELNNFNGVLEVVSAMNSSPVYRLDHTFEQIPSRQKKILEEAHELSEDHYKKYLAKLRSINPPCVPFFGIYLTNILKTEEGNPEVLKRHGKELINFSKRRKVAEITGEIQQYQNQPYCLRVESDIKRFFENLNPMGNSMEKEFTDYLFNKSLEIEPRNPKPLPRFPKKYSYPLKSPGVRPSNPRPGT

Row | pIC50 | Compound
1 | 7.41 | Cc1nc(N[C@H](C)c2cccc(C(F)(F)C(O)C(C)(C)C)c2F)c2cc(P(C)(C)=O)ncc2n1 (stereo in doubt) [Example 136, (2R*)-1-{3-[(1R)-1-{[6-(dimethylphosphoryl)-2-methylpyrido[3,4-d]pyrimidin-4-yl]amino}ethyl]-2-fluorophenyl}-1,1-difluoro-3,3-dimethylbutan-2-ol]
2 | 7.92 | Cc1nc(N[C@H](C)c2cccc(C(F)(F)F)c2C)c2cc(P3(=O)CCN(C(=O)C4(F)CC4)CC3)ncc2n1 [Example 168, 1-(1-fluorocyclopropane-1-carbonyl)-4-[2-methyl-4-({(1R)-1-[2-methyl-3-(trifluoromethyl)phenyl]ethyl}amino)pyrido[3,4-d]pyrimidin-6-yl]-1,4lambda^5-azaphosphinan-4-one]
3 | 8.41 | Cc1nc(N[C@H](C)c2cccc(C(F)(F)F)c2C)c2cc(P3(=O)CCN(C(=O)C4CC4)CC3)ncc2n1 [Example 174, 1-(cyclopropanecarbonyl)-4-[2-methyl-4-({(1R)-1-[2-methyl-3-(trifluoromethyl)phenyl]ethyl}amino)pyrido[3,4-d]pyrimidin-6-yl]-1,4lambda^5-azaphosphinan-4-one]
4 | 8.23 | Cc1nc(N[C@H](C)c2cccc(C(F)(F)C(C)O)c2F)c2cc(P(C)(=O)C(C)C)ncc2n1 (single isomer, unassigned) [Example 80, (2R*)-1,1-difluoro-1-{2-fluoro-3-[(1R)-1-({2-methyl-6-[methyl(propan-2-yl)phosphoryl]pyrido[3,4-d]pyrimidin-4-yl}amino)ethyl]phenyl}propan-2-ol]
5 | 5.87 | CC(=O)N1CCP(=O)(c2cc3c(N[C@H](C)c4cccc(C(F)(F)F)c4C)nc(C)nc3c(O)n2)CC1 [Example 30, 1-acetyl-4-[8-hydroxy-2-methyl-4-({(1R)-1-[2-methyl-3-(trifluoromethyl)phenyl]ethyl}amino)pyrido[3,4-d]pyrimidin-6-yl]-1,4lambda^5-azaphosphinan-4-one]
6 | 7.71 | CCP(C)(=O)c1cc2c(N[C@H](C)c3cccc(C(F)(F)C(C)(C)O)c3F)nc(C)nc2cn1 (single isomer, unassigned) [Example 69]
7 | 7.23 | CCP(=O)(CC)c1cc2c(N[C@H](C)c3cccc(C(F)(F)C(C)(C)O)c3F)nc(C)nc2cn1 [Example 123, 1-{3-[(1R)-1-{[6-(diethylphosphoryl)-2-methylpyrido[3,4-d]pyrimidin-4-yl]amino}ethyl]-2-fluorophenyl}-1,1-difluoro-2-methylpropan-2-ol]
8 | 7.92 | Cc1nc(N[C@H](C)c2cccc(C(F)(F)C(C)(C)O)c2F)c2cc(P3(=O)CC=CC3)ncc2n1 [Example 85, 1-[4-({(1R)-1-[3-(1,1-difluoro-2-hydroxy-2-methylpropyl)-2-fluorophenyl]ethyl}amino)-2-methylpyrido[3,4-d]pyrimidin-6-yl]-2,5-dihydro-1H-1lambda^5-phosphol-1-one]
9 | 7.90 | Cc1nc(N[C@H](C)c2cccc(C(F)F)c2F)c2cc(P3(=O)CCN(C(=O)C4(C#N)CC4)CC3)ncc2n1 [Example 152, 1-{4-[4-{{(1R)-1-[3-(difluoromethyl)-2-fluorophenyl]ethyl}amino)-2-methylpyrido[3,4-d]pyrimidin-6-yl]-4-oxo-1,4lambda5-azaphosphinane-1-carbonyl}cyclopropane-1-carbonitrile]
10 | 8.21 | CC(=O)N1CCP(=O)(c2cc3c(N[C@H](C)c4cccc(C(F)(F)C(N)=O)c4F)nc(C)nc3cn2)CC1 [Example 46, 2-{3-[(1R)-1-{[6-(1-acetyl-4-oxo-1,4lambda^5-azaphosphinan-4-yl)-2-methylpyrido[3,4-d]pyrimidin-4-yl]amino}ethyl]-2-fluorophenyl}-2,2-difluoroacetamide]
11 | 7.79 | Cc1nc(N[C@H](C)c2cccc(C(F)(F)F)c2C)c2cc(P(C)(C)=O)cnc2n1 [Example 13, 6-(dimethylphosphoryl)-2-methyl-N-{(1R)-1-[2-methyl-3-(trifluoromethyl)phenyl]ethyl}pyrido[2,3-d]pyrimidin-4-amine]
12 | 7.49 | Cc1nc(N[C@H](C)c2cccc(C(F)(F)F)c2C)c2cc(P3(=O)CCCC3)ncc2n1 [Example 99, 1-[2-methyl-4-{{(1R)-1-[2-methyl-3-(trifluoromethyl)phenyl]ethyl}amino)pyrido[3,4-d]pyrimidin-6-yl]-1lambda^5-phospholan-1-one]
13 | 8.53 | Cc1nc(N[C@H](C)c2cccc(C(F)(F)CN(C)S(C)(=O)=O)c2F)c2cc(P3(=O)CCN(C(=O)C4CC4)CC3)ncc2n1 [Example 181, N-(2-{3-[(1R)-1-({6-[1-(cyclopropanecarbonyl)-4-oxo-1,4lambda^5-azaphosphinan-4-yl]-2-methylpyrido[3,4-d]pyrimidin-4-yl}amino)ethyl]-2-fluorophenyl}-2,2-difluoroethyl)-N-methylmethanesulfonamide]
14 | 7.11 | CCP(=O)(CC)c1cc2c(N[C@H](C)c3cccc(C(F)F)c3F)nc(C)nc2cn1 [Example 92, 6-(diethylphosphoryl)-N-{(1R)-1-[3-(difluoromethyl)-2-fluorophenyl]ethyl}-2-methylpyrido[3,4-d]pyrimidin-4-amine]
15 | 8.30 | COCC(=O)N1CCP(=O)(c2cc3c(N[C@H](C)c4cccc(C(F)(F)F)c4C)nc(C)nc3cn2)CC1 [Example 177, 1-(methoxyacetyl)-4-[2-methyl-4-({(1R)-1-[2-methyl-3-(trifluoromethyl)phenyl]ethyl}amino)pyrido[3,4-d]pyrimidin-6-yl]-1,4lambda^5-azaphosphinan-4-one]
16 | 7.23 | Cc1nc(N[C@H](C)c2cccc(C(F)(F)C(C)(C)O)c2F)c2cc(P(=O)(C(C)C)C(C)C)ncc2n1 [Example 12, 1-{3-[(1R)-1-({6-[di(propan-2-yl)phosphoryl]-2-methylpyrido[3,4-d]pyrimidin-4-yl}amino)ethyl]-2-fluorophenyl}-1,1-difluoro-2-methylpropan-2-ol]
17 | 7.79 | Cc1nc(N[C@H](C)c2cccc(C(F)(F)F)c2C)c2cc(P(C)(C)=O)ccc2n1 [Example 106, 6-(dimethylphosphoryl)-2-methyl-N-{(1R)-1-[2-methyl-3-(trifluoromethyl)phenyl]ethyl}quinazolin-4-amine]
18 | 7.06 | CNC(=O)C(F)(F)c1cccc([C@@H](C)Nc2nc(C)nc3cnc(P(C)(C)=O)cc23)c1F [Example 51, 2-{3-[(1R)-1-{[6-(dimethylphosphoryl)-2-methylpyrido[3,4-d]pyrimidin-4-yl]amino}ethyl]-2-fluorophenyl}-2,2-difluoro-N-methylacetamide]
19 | 7.60 | Cc1nc(N[C@H](C)c2cccc(C(F)(F)CO)c2F)c2cc(P(C)(=O)C(C)C)ncc2n1 (single isomer, unassigned) [Example 134]
20 | 7.90 | COCC(F)(F)c1cccc([C@@H](C)Nc2nc(C)nc3cnc(P4(=O)CCN(C(C)=O)CC4)cc23)c1 [Example 143, 1-acetyl-4-[4-({(1R)-1-[3-(1,1-difluoro-2-methoxyethyl)phenyl]ethyl}amino)-2-methylpyrido[3,4-d]pyrimidin-6-yl]-1,4lambda^5-azaphosphinan-4-one]
21 | 7.33 | COCC(F)(F)c1cccc([C@@H](C)Nc2nc(C)nc3cnc(P(C)(C)=O)cc23)c1F [Example 94, N-{(1R)-1-[3-(1,1-difluoro-2-methoxyethyl)-2-fluorophenyl]ethyl}-6-(dimethylphosphoryl)-2-methylpyrido[3,4-d]pyrimidin-4-amine]
22 | 8.23 | CC(=O)N1CCP(=O)(c2cc3c(N[C@H](C)c4cccc(C(F)F)c4C)nc(C)nc3cn2)CC1 [Example 190]
23 | 7.69 | Cc1nc(N[C@H](C)c2cccc(C(F)F)c2F)c2cc(P3(=O)CCCC3)ncc2n1 [Example 107, 1-[4-{{(1R)-1-[3-(difluoromethyl)-2-fluorophenyl]ethyl}amino)-2-methylpyrido[3,4-d]pyrimidin-6-yl]-1lambda^5-phospholan-1-one]
